Paper PMC5855594, “Poly-N-Acetyllactosamine Neo-Glycoproteins as Nanomolar Ligands of Human Galectin-3: Binding Kinetics and Modeling” (International Journal of Molecular Sciences, 2018)
Where two headings read alike, the source gives them in different places.

Key:
[1] = molecular target: T1, human galectin-3 (Gal-3) (Homo sapiens, UniProt P17931); assay: Competitive ELISA: inhibition of His-tagged Gal-3 binding to immobilized asialofetuin (ASF); settings: for increase of inhibitory potency compared to lactose (times): competitive ELISA; for IC50: read-out: IC50 Glycan
T1 construct: made in house; host or cells: E. coli Rosetta (DE3) pLysS
T1 sequence (P17931 whole entry): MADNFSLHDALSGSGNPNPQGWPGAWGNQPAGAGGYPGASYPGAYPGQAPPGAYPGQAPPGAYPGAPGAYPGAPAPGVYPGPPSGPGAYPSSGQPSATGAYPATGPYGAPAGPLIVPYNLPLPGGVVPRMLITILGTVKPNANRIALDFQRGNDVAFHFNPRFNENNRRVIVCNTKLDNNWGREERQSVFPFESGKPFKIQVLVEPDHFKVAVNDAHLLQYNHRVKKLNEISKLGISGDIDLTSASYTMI
Procedure: To assess the inhibitory potential of glycans 1–8 and the respective neo-glycoproteins 9–16 towards Gal-3, their capacity to inhibit the binding of Gal-3 to immobilized asialofetuin (ASF) was determined by competitive ELISA inhibition analyses (Figure 2b). ASF is a multivalent glycoprotein presenting three triantennary N-glycans terminated with LacNAc, which is reported to interact with Gal-3. Here, Gal-3 was incubated with increasing concentrations of the glycans or neo-glycoproteins as competing ligands and the inhibition of Gal-3 binding to immobilized ASF was quantified by colorimetric immunodetection using anti-His antibody conjugated to HRP. […] The respective inhibition constants (IC50) were calculated from the non-linear regression of the sigmoidal inhibition curves and they are listed in Table 1.
In the competitive ELISA design, the F16 Maxisorp NUNC-Immuno Modules (Thermo Scientific, Roskilde, Denmark) were coated overnight with ASF (Sigma Aldrich, Steinheim, Germany; 0.1 µM in PBS, 50 µL, 5 pmol per well) and blocked with BSA (2% w/v) diluted in PBS (1 h, room temperature). […] Detection of bound Gal-3 and data analysis were performed as described above.

[2] = molecular target: T1, human galectin-3 (Gal-3); settings: monovalent glycan; inhibition of Gal-3 binding to immobilized ASF; cited from earlier work
[3] = molecular target: T2, Gal-3-AVI (Homo sapiens, UniProt P17931); assay: SPR with biotinylated Gal-3-AVI captured on neutravidin chip, neo-glycoproteins as analytes; assay type: binding
T2 construct: made in house; host or cells: E. coli BL21 (λDE3), co-expressed with BirA
T2 sequence (P17931 whole entry): as above
Procedure: For SPR analysis, the biotinylated Gal-3-AVI was captured on a neutravidin-coated sensor chip, and the binding of serially diluted neo-glycoproteins 9–16 to immobilized Gal-3-AVI was analyzed. Three coupling concentrations of Gal-3-AVI were tested, so that the effect of mass transfer and the non-specific binding were minimized. As a result, the coupling level of 250 relative units (RU) along with the flow rate of 30 µL/min gave the optimum conditions and these parameters were used for the subsequent experiments.
Figure 4 SPR kinetic binding analysis of the interactions between neo-glycoproteins 9–16 and immobilized Gal-3-AVI. The neo-glycoproteins at indicated concentrations were injected in parallel over the neutravidin-coated sensor chip coated with the biotinylated Gal-3-AVI at a flow rate of 30 μL/min. The kinetic data were globally fitted by using a 1:1 Langmuir binding model. The fitted curves are superimposed as thin black lines on top of the sensograms. BSA, bovine serum albumin; rel., relative.
SPR measurements were performed at 25 °C using a set of sensor chips (GLC, NLC, HTE) mounted on a ProteOn XPR36 Protein Interaction Array System (Bio-Rad, Hercules, CA, USA ) as described previously. Briefly, Gal-3-AVI protein was diluted to a final concentration of 5 µg·mL^−1 in PBS and captured on a neutravidin-coated NLC sensor chip (Bio-Rad) at a flow rate of 30 µL·min^−1. Neo-glycoproteins 9–16, used here as analytes, were serially diluted in the running buffer (PBS supplemented with 0.005% Tween 20), and injected in parallel over the immobilized Gal-3-AVI at a flow rate of 30 µL·min^−1. The Gal-3-AVI surface was regenerated by a washing step with 50 mM HCl for 60 s. For the reversed experimental setup, the neo-glycoproteins 9–16 were immobilized on the GLC sensor chip by amine coupling chemistry and serial dilutions of Gal-3 were injected over the sensor surface. […] The equilibrium dissociation constant, KD, was determined as a ratio between the dissociation and association rate constants: KD=kd/ka

[4] = molecular target: T1, human galectin-3 (Gal-3); assay: Direct ELISA: binding of soluble His-tagged Gal-3 to immobilized neo-glycoproteins or ASF
Excerpt: To determine the binding affinities between Gal-3 and neo-glycoproteins 9–16, the binding of soluble Gal-3 to the neo-glycoproteins immobilized in microplate wells was quantified by colorimetric immunodetection using anti-His antibody conjugated to horseradish peroxidase (HRP) (Figure 2a). Gal-3 bound neo-glycoproteins in a concentration-dependent manner and the interaction was exclusively conferred by glycan moieties since no binding of Gal-3 to the glycan-free BSA was detected. Apparent dissociation constants (Kd) of the Gal-3/neo-glycoprotein complexes were calculated from a non-linear regression of binding curves.
The affinity of Gal-3 for neo-glycoproteins 9–16 was determined using ELISA as reported previously. For the immobilization of the respective neo-glycoproteins or non-modified BSA (negative control), we used F16 Maxisorp NUNC-Immuno Modules (Thermo Scientific, Roskilde, Denmark). Per well, an amount of 5 pmol was incubated overnight at a working concentration of 0.1 µM (PBS). Then the wells were blocked with bovine serum albumin (2% w/v) diluted in PBS (1 h, room temperature). […] The binding signal of bound galectin was measured with a spectrophotometer (Spectra Max Plus, Molecular Devices, Sunnyvale, CA, USA) at an optical density of 450 nm. Obtained data were analyzed using SigmaPlot 10 software (Systat Software GmbH, Erkrath, Germany).

[5] = molecular target: T2, Gal-3-AVI; assay: Direct ELISA with Gal-3-AVI construct; assay type: binding; settings: read-out: Kd app, direct ELISA
Excerpt: To overcome the difficulties with Gal-3 immobilization, we prepared a biotinylated version of Gal-3 through in vivo biotinylation of an AviTag peptide that was genetically fused to the N-terminus of Gal-3 (Gal-3-AVI) (Figure 3). The AviTag is a specific 15-amino acid peptide sequence ([…]) that directs a highly targeted enzymatic conjugation of a single biotin molecule to the specific lysine (K) residue within the AviTag sequence using biotin ligase (BirA). In contrast to chemical biotinylation, which usually generates heterogeneous products with impaired function, the co-translational biotinylation of the AviTag peptide is site specific and provides a highly homogeneous protein preparation. Moreover, the N-terminal localization of the AviTag peptide provides a favorable orientation of Gal-3-AVI on a streptavidin-coated surface, leaving the C-terminal carbohydrate-binding domain of Gal-3 freely accessible for binding interactions.
Table S1. Comparison of binding affinities of His6-tag Gal-3 and Gal-3-AVI in ELISA assays Kd app [µM], direct ELISA IC50 glycan [µM], competitive ELISA […]
Figure S7. SPR kinetic binding analysis of the interactions between asialofetuin (ASF) and immobilized Gal-3-AVI. ASF was injected in parallel over the neutravidin-coated sensor chip coated with the biotinylated Gal-3-AVI at a flow rate of 30 µl/min. […]

[6] = molecular target: T2, Gal-3-AVI; assay: Competitive ELISA with Gal-3-AVI construct; assay type: binding; settings: read-out: IC50 glycan, competitive ELISA
[7] = immobilized Gal-3-AVI, 1:1 Langmuir model, 25 °C

## CC(=O)N[C@@H]1[C@@H](O)[C@H](O[C@@H]2O[C@H](CO)[C@H](O)[C@H](O)[C@H]2O)[C@@H](CO)O[C@H]1NC(=S)NCCNC(=O)OC(C)(C)C [glycan 2]
[1]
  increase of inhibitory potency compared to lactose (times): up to 4
  IC50: 36 ± 1 µM

## CC(=O)N[C@@H]1[C@@H](O)[C@H](O[C@@H]2O[C@H](CO)[C@H](O)[C@H](O[C@@H]3O[C@H](CO)[C@@H](O[C@@H]4O[C@H](CO)[C@H](O)[C@H](O)[C@H]4NC(C)=O)[C@H](O)[C@H]3NC(C)=O)[C@H]2O)[C@@H](CO)O[C@H]1NC(=S)NCCNC(=O)OC(C)(C)C [glycan 3, LacdiNAc-LacNAc]
[2]
  IC50: 7 ± 1 µM

## CC(=O)N[C@@H]1[C@@H](O)[C@H](O[C@@H]2O[C@H](CO)[C@H](O)[C@H](O[C@@H]3O[C@H](CO)[C@@H](O[C@@H]4O[C@H](CO)[C@H](O)[C@H](O[C@@H]5O[C@H](CO)[C@@H](O[C@@H]6O[C@H](CO)[C@H](O)[C@H](O[C@H]7O[C@H](CO)[C@H](O)[C@H](O)[C@H]7O)[C@H]6O)[C@H](O)[C@H]5NC(C)=O)[C@H]4O)[C@H](O)[C@H]3NC(C)=O)[C@H]2O)[C@@H](CO)O[C@H]1NC(=S)NCCNC(=O)OC(C)(C)C [glycan 8, Galili-LacNAc-LacNAc]
[2]
  IC50: 8.4 ± 0.1 µM

## Asialofetuin [ASF]
[3]; [7]
  ka: (4.8 ± 1.9) × 10^4 M^−1·s^−1
  kd: (4.0 ± 1.7) × 10^−4 s^−1
[4]; His6-tag Gal-3, read-out: Kd app, direct ELISA
  Kd: 5 ± 1 µM
[5]
  Kd: 4.8 ± 0.2 µM

## CC(=O)N[C@@H]1[C@@H](O)[C@H](O[C@@H]2O[C@H](CO)[C@H](O)[C@H](O[C@@H]3O[C@H](CO)[C@@H](O[C@@H]4O[C@H](CO)[C@H](O)[C@H](O[C@@H]5O[C@H](CO)[C@@H](O[C@@H]6O[C@H](CO)[C@H](O)[C@H](O)[C@H]6NC(C)=O)[C@H](O)[C@H]5NC(C)=O)[C@H]4O)[C@H](O)[C@H]3NC(C)=O)[C@H]2O)[C@@H](CO)O[C@H]1NC(=S)NCCNC(=O)OC(C)(C)C [glycan 5, LacdiNAc-LacNAc-LacNAc]
[2]
  IC50: 6.2 ± 0.02 µM

## bovine serum albumin [BSA]
[3]; nanomolar concentrations
  SPR response / binding to immobilized Gal-3-AVI: no binding
[4]; negative control, immobilized
  binding of Gal-3 in direct ELISA: no binding

## CC(=O)N[C@@H]1[C@@H](O)[C@H](O[C@@H]2O[C@H](CO)[C@H](O)[C@H](O[C@@H]3O[C@H](CO)[C@@H](O[C@@H]4O[C@H](CO)[C@H](O)[C@H](O[C@@H]5O[C@H](CO)[C@@H](O[C@@H]6O[C@H](CO)[C@H](O)[C@H](O)[C@H]6O)[C@H](O)[C@H]5NC(C)=O)[C@H]4O)[C@H](O)[C@H]3NC(C)=O)[C@H]2O)[C@@H](CO)O[C@H]1NC(=S)NCCNC(=O)OC(C)(C)C [glycan 6, LacNAc-LacNAc-LacNAc]
[2]
  IC50: 20.1 ± 0.1 µM

## CC(=O)N[C@@H]1[C@@H](O)[C@H](O[C@@H]2O[C@H](CO)[C@H](O)[C@H](O[C@@H]3O[C@H](CO)[C@@H](O[C@@H]4O[C@H](CO)[C@H](O)[C@H](O[C@@H]5O[C@H](CO)[C@@H](O)[C@H](O[C@@H]6O[C@H](CO)[C@H](O)[C@H](O)[C@H]6O)[C@H]5NC(C)=O)[C@H]4O)[C@H](O)[C@H]3NC(C)=O)[C@H]2O)[C@@H](CO)O[C@H]1NC(=S)NCCNC(=O)OC(C)(C)C [glycan 7, LacNAc type 1-LacNAc-LacNAc]
[2]
  IC50: 12.5 ± 0.1 µM

## CC(=O)N[C@@H]1[C@@H](O)[C@H](O[C@@H]2O[C@H](CO)[C@H](O)[C@H](O)[C@H]2NC(C)=O)[C@@H](CO)O[C@H]1NC(=S)NCCNC(=O)OC(C)(C)C [glycan 1, LacdiNAc]
[6]
  IC50: 43 ± 4 µM
[1]
  increase of inhibitory potency compared to lactose (times): up to 4
  IC50: 42 ± 2 µM

## CC(=O)N[C@@H]1[C@@H](O)[C@H](O[C@@H]2O[C@H](CO)[C@H](O)[C@H](O[C@@H]3O[C@H](CO)[C@@H](O[C@@H]4O[C@H](CO)[C@H](O)[C@H](O)[C@H]4O)[C@H](O)[C@H]3NC(C)=O)[C@H]2O)[C@@H](CO)O[C@H]1NC(=S)NCCNC(=O)OC(C)(C)C [glycan 4, LacNAc-LacNAc]
[2]
  IC50: 13 ± 3 µM
